Experimental data reported in patent US20260294867A1, “METHODS FOR WEIGHT LOSS AND/OR REDUCING WEIGHT GAIN” (The Medical College of Wisconsin, Inc., priority 2023, published 2026).

Assays:
Type in all cases: in vivo, C57BL/6J diet-induced obesity (DIO) male mice
[1] = Example 1: eating behavior, calories ingested per day; settings: 2-way ANOVA of FIG. 4A; reutericyclin 100 μg/kg gavage, semaglutide 1 nmole/kg/day IP
Source text: (§1) FIG. 1 depicts the experimental approach for this Example. C57BL/6J diet-induced obesity (DIO) male mice were obtained at 12 weeks of age and housed singly in the MCW animal facility (www.jax.org/jax-mice-and-services/strain-data-sheet-pages/phenotype-information-380050). Mice were maintained on a 60% high fat diet (HFD) (Research Diets D12492) throughout the experiment. Mice were acclimated for 2 weeks prior to treatment with either semaglutide, reutericyclin, both drugs, or neither drug.
(§2) Mice were weight-matched into 4 groups (N=10 per group) and given either reutericyclin via gavage to achieve a dosage of 100 μg/kg or injected intraperitoneally (IP) with semaglutide to administer 1 nmole/kg/day. All mice experienced both gavage and injection with either drug or vehicle. Vehicle for reutericyclin and semaglute are identical: 3.0% DMSO in phosphate buffered saline (PBS).
(§3) The four groups were: the control group (HFD-PBS), which received vehicle only; the HFD-RTC group, which were administered reutericyclin at a dose of 100 μg/kg of body weight in PBS; the HFD-RTC-SemaG group, which received reutericyclin at a dose of 100 μg/kg of body weight and 1 nanomole of semaglutide/kg of body weight in vehicle; and the HFD-SemaG group, which were administered 1 nanomole of semaglutide/kg of body weight in vehicle. […]

[2] = Example 2: change in weight at day 46 after withdrawal of the semaglutide; settings: 2-way ANOVA
Source text: (§4) FIG. 5 depicts the experimental approach for this Example, and additional details can be found in Tables 3 and 4 below. C57BL/6J diet-induced obesity (DIO) male mice were obtained at 12 weeks of age and housed singly in the MCW animal facility (https://www.jax.org/jax-mice-and-services/strain-data-sheet-pages/phenotype-information-380050). Mice were maintained on a 60% high fat diet (Research Diets D12492) throughout the experiment. Mice were acclimated for 2 weeks prior to treatment with either semaglutide, reutericyclin (RTC), both drugs, or neither drug.
as §2, with “(PBS). […]” for “(PBS).”
(§5) Mice were weighed daily to assess changes in body mass. […] Feeding efficiency is calculated by measuring the amount of weight gained by each mouse per gram of food consumed over a period of 5 days. Feeding efficiency shown here was calculated over days 21-26. […]

[3] = Example 2: change in body mass on day 26; settings: 2-way ANOVA
Source text: as §4
as §2, with “(PBS). […]” for “(PBS).”
as §5

[4] = Example 2: fasted blood glucose at day 27; settings: 4 hours without food
Source text: as §4, §2
The four groups of mice were as follows: Group 1 (black) (HFD-PBS) received no drug but experienced gavage and injection; Group 2 (red) (HFD-RTC) received reutericyclin via gavage and experienced injection with vehicle only; Group 3 (green) (HFD-SemaG) received no drug via gavage and experienced injection with semaglutide; and Group 4 (purple) (HFD-RTC-SemaG) received reutericyclin via gavage and experienced injection with semaglutide.
Fasted blood glucose (4 hours without food) was performed with standard glucose test strips. Blood was obtained by a tail prick on day 27 of the experiment.
For each 2-way ANOVA statistical analyses, injection refers to semaglutide, gavage refers to reutericyclin, and interaction refers to the combination of injection and gavage.
FIG. 9 is a bar graph depicting the fasted blood glucose level at day 27 as described in Example 2.

[5] = Example 2: feeding efficiency; settings: 2-way ANOVA, days 21-26
Source text: as §4
as §2, with “(PBS). […]” for “(PBS).”
as §5

[6] = Example 1: fasted blood glucose; settings: 2-way ANOVA of FIG. 4B; reutericyclin 100 μg/kg gavage, semaglutide 1 nmole/kg/day IP
Source text: as §1, §2, §3

SMILES: CCCCCCC/C=C/C(=O)N1C(=O)C(C(C)=O)=C(O)[C@H]1CC(C)C [reutericyclin, (5R)-1-(2-decenoyl)-2-hydroxy-3-acetyl-5-isobutyl-42-pyrroline-4-one]
- effect on eating (calories ingested per day) [1]: no noted effect
- Significant?, change in weight after withdrawal of the semaglutide ([2]; semaglutide stopped at day 26): Yes
- % of total variation, change in weight after withdrawal of the semaglutide ([2]; semaglutide stopped at day 26, gavage = reutericyclin, injection = semaglutide, interaction = combination): 5.422%
- Significant?, change in body mass [3]: Yes
- % of total variation, change in body mass ([3]; gavage = reutericyclin 100 μg/kg, injection = semaglutide 1 nmole/kg/day IP, interaction = combination): 7.893%
- Significant?, fasted blood glucose level ([4]; 2-way ANOVA): No
- % of total variation, fasted blood glucose level ([4]; 2-way ANOVA, gavage = reutericyclin, injection = semaglutide, interaction = combination): 9.241e−005%
- effect on blood glucose levels ([4]; tail prick): does not
- Significant?, feeding efficiency [5]: Yes
- % of total variation, feeding efficiency ([5]; weight gained per gram of food consumed, gavage = reutericyclin, injection = semaglutide, interaction = combination): 8.034%
- effect on fasting blood glucose [6]: no noted effect
